Data taken from patent US5965126A, “use of mutant alkyltransferases for gene therapy to protect from toxicity of therapeutic alkylating agents” (priority 1996, dated 1999).
Changes are numbered by the printed parent chain.

Legend:
human AGT mutant P140A = target: T1, human AGT mutant P140A (Homo sapiens, UniProt P16455, P140A); test: Inactivation of cellular AGT in CHO cells expressing mutant P140A (CHO-P140A); format: cell-based; conditions: for Increase of ED50 with P140A AGT: relative to control AGT in CHO cells, 240 min
T1 construct: expressed in transfected cells; host or cells: Chinese hamster ovary (CHO) cells
T1 sequence (P16455 1-207 P140A): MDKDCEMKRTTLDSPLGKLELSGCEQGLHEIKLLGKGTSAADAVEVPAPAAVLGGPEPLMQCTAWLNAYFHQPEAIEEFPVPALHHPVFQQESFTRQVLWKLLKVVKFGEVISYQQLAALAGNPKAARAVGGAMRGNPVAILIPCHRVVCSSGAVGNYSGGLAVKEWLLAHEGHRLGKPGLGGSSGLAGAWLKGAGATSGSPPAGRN
Experimental: (§1) The cells were then harvested and the AGT activity determined.
(§2) AGT activity assays--Extracts were prepared and AGT activity was determined as described by Dolan et al. (Dolan, et al., 1990, Proc. Natl. Acad. Sci. U.S.A. 87: 5368-5372) by incubation for 30 min at 37° C. with a [^3 H]methylated calf thymus DNA substrate prepared by reaction of DNA with N-[^3 H]methyl-N-nitrosourea (Amersham Inc., Arlington Hts., Ill.). The AGT activity of the cells was then expressed as fmol of O^6 -methylguanine removed per mg of protein present in the cell extracts. Protein was determined by the method of Bradford (Bradford, 1976, Anal. Biochem. 72: 248-254). […] After 4 h exposure, the cells were harvested and washed with PBS. Cell pellets were stored at -80° C. until assayed. Extracts were then prepared and AGT activity determined. The results were expressed as the percentage of the AGT activity present in cultures to which no drug was added.

human AGT mutant G156A = target: T2, human AGT mutant G156A (Homo sapiens, UniProt P16455, G156A); test: Inactivation of cellular AGT in CHO cells expressing mutant G156A (CHO-G156A); format: cell-based; conditions: for Increase of ED50 with G156A AGT: relative to control AGT in CHO cells, 240 min
T2 construct: expressed in transfected cells; host or cells: Chinese hamster ovary (CHO) cells
T2 sequence (P16455 1-207 G156A): T1 sequence (P16455 1-207 P140A) with A140P, G156A
Experimental: as §1, §2

[1] = tested on: CHO cells expressing mutant AGTs; test: Effect of AGT inhibitors alone on colony formation; format: cell-based, Chinese hamster; conditions: inhibitor alone, 18-20 h, cells expressing G156A
Experimental: FIG. 5 show the effect of different concentrations of BG and 5-nitroso-BP on colony formation. BG was added to CHO cells expressing mutant AGTs P140 (.circle-solid.) and G156A (.quadrature.) and 5-nitroso-BP was added to cells expressing G156A (.box-solid.) for 18-20 h. The cells were then replated as described in materials and methods and colonies were counted 7-8 days later.
(§3) Cytotoxicity assays--Cell killing was determined using a colony forming assay (Pegg, et al., 1995, Biochem. Pharmacol. 50: 1141-1148; Dolan, et al., 1986, Cancer Res. 46: 4500-4504). The cells were plated using 10^6 cells per 25 cm^2 flask and grown for 24 h. After 2 h of incubation with either BG or 5-nitroso-BP, 80 μM BCNU was added for 2 h. The medium was then replaced with fresh medium also containing the AGT inactivator and the cells were left at 37° C. for an additional 16-18 h. The cells were then replated at densities of 100 to 1000 cells per 25 cm^2 flask and grown for 7-8 days until discrete colonies could be stained and counted. The colonies were washed with 0.9% saline and stained with crystal violet and counted.

[2] = tested on: CHO cells expressing control AGT; test: Sensitization to killing by 80 μM BCNU, colony forming assay, CHO cells expressing control AGT; format: cell-based, Chinese hamster; conditions: with 80 μM BCNU
Experimental: (§4) FIG. 6a and FIG. 6b show the effect of different concentrations of BG (FIG. 6a) and 5-nitroso-BP (FIG. 6b) on killing of cells by BCNU. Cells were treated with BG or 5-nitroso-BP at the concentrations indicated for 2 h and BCNU at 80 μM was added for 2 h. Medium was replaced with fresh medium also containing the AGT inhibitor but not BCNU for the period of 18 h. The cells were then replated as described in materials and methods and colonies were counted 7-8 days later.
as §3

[3] = tested on: CHO cells expressing P140A AGT; test: Sensitization to killing by 80 μM BCNU, colony forming assay, CHO cells expressing P140A AGT; format: cell-based, Chinese hamster; conditions: with 80 μM BCNU
Experimental: as §4, §3

[4] = tested on: CHO cells expressing G156A AGT; test: Sensitization to killing by 80 μM BCNU, colony forming assay, CHO cells expressing G156A AGT; format: cell-based, Chinese hamster
Experimental: as §4, §3

AGT [5] = conditions: HT29 cells; read-out: Inactivation of AGT, ED50 after 4 h exposure; cited from earlier work
AGT [6] = target: T3, AGT (Homo sapiens, UniProt P16455); test: Inactivation of cellular AGT in CHO cells expressing human AGT (CHO-AGT); format: cell-based; design: expressed in transfected cells; host or cells: Chinese hamster ovary (CHO) cells; conditions: read-out: Inactivation of AGT, ED50 after 4 h exposure
T3 sequence (P16455 1-207): T1 sequence (P16455 1-207 P140A) with A140P
Experimental: as §1, §2

Control CHO cells = test: Colony forming assay, killing of control CHO cells by BCNU; format: cell-based, Chinese hamster; conditions: 2 h, after 80 μM BCNU, read-out: survival
Experimental: (§5) Control CHO cells (.tangle-solidup.) and CHO cells expressing human AGT (.smallcircle.) or its mutants P140A (.circle-solid.) and G156A (.quadrature.) were treated with BCNU at the concentration shown for 2 h. The medium was then replaced. After 16-18 h, the cells were replated as described in Example Section 6 and colonies were counted 7-8 days later.
as §3

[7] = tested on: CHO cells expressing control or mutant AGT; test: Colony forming assay, killing by BCNU of transfected CHO cells expressing control or mutant AGT; format: cell-based, Chinese hamster; conditions: up to 100 μM BCNU, highest concentration tested
Experimental: as §5, §3

[8] = tested on: ΔMGMT transduced K562 cells; test: Clonogenic survival in methylcellulose after BG and BCNU, ΔMGMT transduced K562 cells; format: cell-based, human
[9] = tested on: wtMGMT transduced K562 cells; test: Clonogenic survival in methylcellulose after BG and BCNU, wtMGMT transduced K562 cells; format: cell-based, human
untransduced K562 cells = test: Clonogenic survival in methylcellulose after BG and BCNU, untransduced K562 cells; format: cell-based; conditions: Homo sapiens
[10] = tested on: ΔMGMT transduced CD34^+ cells; test: Clonogenic progenitor survival after BG and BCNU, ΔMGMT transduced CD34+ cells
Experimental: (§6) CD34^+ Transduction--Peripheral blood mononuclear cells were obtained by apheresis from patients treated with cyclophosphamide and G-CSF. CD34^+ progenitors were isolated using the Ceprate SC Stem Cell Concentrator (Cell Pro, Bothell, Wash.) according to manufacturer's directions. Briefly, cells were washed and incubated with biotinylated anti-CD34 antibody, passed over an avidin column and the bound fraction eluted by gentle agitation. […] At 48 hours, half of the media was removed, cells were pelleted and resuspended in fresh, supplemented media, and non-adherent cells were collected at 96 hours.
(§7) BCNU was dissolved in 100% ethanol and diluted to 10 mM with serum free media and immediately added to the cells. Following a two hour incubation at 37° C., cells were incubated in methylcellulose (Stem Cell Technologies, Inc.) containing either SCF, IL3, hemin, erythropoietin, GM-CSF (for CD34^+ cells) or GM-CSF and IL-3 (for K562 cells) in triplicate. […] After incubation for 7-10 days at 37° C. colonies were enumerated and survival was analyzed at each BCNU dose.

[11] = tested on: lac Z transduced hematopoietic progenitor cells; test: Clonogenic progenitor survival after BG and BCNU, lac Z transduced CD34+ cells; conditions: 10 μM BG and 10 μM BCNU, lac Z transduced progenitors
Experimental: as §6, §7

ΔAGT (G156A) = target: T4, ΔAGT (G156A) (Homo sapiens, UniProt P16455, G156A); test: cell-based; conditions: K562, read-out: AGT activity retained
T4 sequence (P16455 1-207 G156A): T1 sequence (P16455 1-207 P140A) with A140P, G156A
Experimental: (§9) AGT Assay--AGT activity was measured as [^3 H]-methyl groups removed from [^3 H] O^6 -methylguanine present in [^3 H]-methylnitrosourea treated alkylated calf thymus DNA. The alkylated [^3 H-methyl] O^6 methylguanine and N^7 methylguanine bases were separated by HPLC and quantified by liquid scintillation. AGT activity was expressed as fmol O^6 mG removed/μg DNA or fmol O^6 removed/mgprotein.

wtAGT = target: T5, wtAGT (Homo sapiens, UniProt P16455); test: BG inactivation of AGT in wtMGMT transduced K562 cells; conditions: 5 μM BG
T5 sequence (P16455 1-207): T1 sequence (P16455 1-207 P140A) with A140P
Experimental: as §9

AGT [12] = target: T3, AGT; test: In vitro screen of potential AGT-inhibiting BG analogs; conditions: versus BG and BGs modified at the benzyl ring
Description: (§8) Another embodiment of the present invention relates to the use of a mutant AGT protein, preferably a human AGT protein, resistant to inactivation by a compound shown to inactivate or at least substantially inactivate the DNA repair function of wild type AGT which include, but again are in no way limited to the O^6 -substituted guanosine and 2' deoxyguanisine compounds disclosed in U.S. Pat. No. 5,352,669 issued to Moschel, et al. on Oct. 4, 1994. […] Furthermore, escalation of the dBG dose was not restricted by solubility as with BG. Therefore, this class of compounds, as exemplified by dBG, will be useful in practicing the present invention whereby the skilled artisan identifies a related AGT mutant which imparts resistance to addition of dBG both in vitro and in vivo.

xenograft = test: In vivo xenograft system, potentiation of BCNU
Description: as §8

[13] = Solubility in aqueous media; format: physicochemical
Description: as §8

[14] = Homo sapiens, K562, read-out: BCNU IC50, clonogenic survival
[15] = Homo sapiens, K562, read-out: BCNU IC90, clonogenic survival

In the case of `Nc1nc(N)c(N=O)c(OCc2ccccc2)n1` [5-nitroso-BP, 2,4-diamino-6benzyloxy-5-nitrosopyrimidine], the IC50 (human AGT mutant P140A; CHO-P140A cells, read-out: Inactivation of AGT, ED50 after 4 h exposure) is reported as 1.25 µM, the “Increase of ED50 with P140A AGT” value (human AGT mutant P140A) is reported as 25 fold and the IC50 (human AGT mutant G156A; CHO-G156A cells, read-out: Inactivation of AGT, ED50 after 4 h exposure) is reported as 5 µM. The “Increase of ED50 with G156A AGT” value (human AGT mutant G156A) was 100 fold, the “concentrations reducing colony formation” value [1] was “above 30 μM” and the “concentration required to reduce colony formation to <1 per 1000 cells plated” value [2] was “about 5 μM”. The “concentration needed to reduce colony formation to <1 per 1000 cells plated” value [3] was “More than 25 μM”, the “concentration required to sensitize cells to BCNU” value ([4]; with 80 μM BCNU) was over 40 µM and the IC50 (AGT [5]) was 0.02 µM. The IC50 (AGT [6]) was 0.05 µM.
In the case of `O=NN(CCCl)C(=O)NCCCl` [BCNU, N,N'-bis(2-cholorethyl)-N-nitrosourea], the viability at 80 µM (Control CHO cells) is reported as under 0.1%, the “killing by BCNU” value [7] is reported as “completely resistant” and the clonogenic survival ([8]; 30 μM BCNU & BG, ΔMGMT K562 cells) is reported as 20%. For the same molecule, the IC50 [8, 14] was 11.3 µM, the IC90 [8, 15] was over 30 µM and the clonogenic survival ([9]; 30 μM BCNU & BG, wtMGMT K562 cells) was under 1%. The IC50 [9, 14] was 4 µM, the IC90 [9, 15] was 16 µM and the IC50 (untransduced K562 cells; K562, read-out: BCNU IC50, clonogenic survival) was 1.3 µM. The IC90 (untransduced K562 cells; K562, read-out: BCNU IC90, clonogenic survival) was 5 µM, the cells resistant ([10]; 10 μM BG and 10 μM BCNU, ΔMGMT transduced CD34+) was “approximately 25%” and the “colonies very resistant to BG & BCNU” value ([10]; ΔMGMT transduced CD34+ derived colonies) was “Over 30%”. The cells killed [11] was “greater than 99%”.
With `Nc1nc(OCc2ccccc2)c2[nH]cnc2n1` [BG, O^6 -benzylguanine] the “Increase of ED50 with P140A AGT” value (human AGT mutant P140A) was 30 fold, the “Increase of ED50 with G156A AGT” value (human AGT mutant G156A) was 60 fold and the “concentration required to reduce colony formation to <1 per 1000 cells plated” value [2] was 50 µM. The “concentration needed to reduce colony formation to <1 per 1000 cells plated” value [3] was 200 µM, the “survival under combined BG and BCNU” value ([4]; 350 μM BG with 80 μM BCNU) was “substantial survival” and the IC50 (AGT [5]) was 0.05 µM. For the same molecule, the activity at 5 µM (ΔAGT (G156A)) was over 90% and the AGT activity (wtAGT) was “undetectable”.
In the case of `Nc1nc(OCc2ccccc2)c2ncn([C@H]3C[C@H](O)[C@@H](CO)O3)c2n1` [dBG], the “potency relative to BG (less potent)” value (AGT [12]) is reported as 10 fold, the “BCNU-potentiating effects compared with BG” value (xenograft) is reported as “quite comparable” and the “solubility in aqueous media compared to other BGs” value [13] is reported as “superior solubility”.
